Experimental data: patent US4752606A, “Pharmaceutical compositions and preparations thereof” (501 Noristan Limited, priority 1982, dated 1988)
Counter-ions that a name gives are not always drawn.

Legend:
[1] = Anti-inflammatory effect: carrageenan induced rat paw oedema; type: in vivo
Description: The compounds (aspirin and oleanolic acid) were administered orally.

[2] = Analgesic effect of aspirin in the presence of oleanolic acid; type: in vivo, rats; details: Rattus norvegicus, read-out: ED50 (analgesic effect)
Description: (§1) The analgesic effect of the compound was tested in oral application to rats. 45 Minutes after application of the compound, the rats received an intraperitoneal injection of 1.0 ml 1% acetic acid. This causes a series of characteristic spasms in the untreated control animals. Analgesic effects are indicated by the reduction of the frequency of these spasms. The following results were obtained with the compound:
Measurement of the analgesic effect of the test compounds was done as set out in Test 1. The ED50 was computed for the various treatments as follows: […]

[3] = Acute toxicity of aspirin with and without oleanolic acid; type: in vivo; details: mouse, in vivo, po, mice, mixture 1:1 mass ratio
[4] = system: mice; assay: as above; type: in vivo; details: oral, males, mixture 1:1 mass ratio
[5] = Antithrombotic effect: pulmonary thrombo-embolism in animals treated with arachnidoic acid; type: in vivo; details: for effect on occurrence of pulmonary thrombo-embolism: animals treated with arachnidoic acid
From the text: Oleanolic acid has no effect in this regard.

[6] = Healing effect on chemically induced ulceration (acetic acid); type: in vivo, rats; details: 100 mg/kg per os twice daily, days 1-10; day 11; vs untreated control
Description: Ulceration was induced by injecting 30% acetic acid into the stomach of the animals on day zero. From day one onwards to day 10 the animals were treated twice daily with the protective compound (100 mg/kg; per os). On day 11 the extent of gastric damage was determined.

[7] = Gastric damage (HCl - Gastrin ulcer) caused by tetragastrin; type: in vivo, rats; details: 100 mg/kg/treatment per os twice daily, days 1-14; tetragastrin 100 μg/kg/day i.p.; day 15; vs untreated control
Description: Each animal was treated with hydrochloric acid (0,2 ml of a 20% solution; per os) on day zero. From day one onwards to day 14 the animals were treated once daily with tetragastrin (100 μg/kg/day; intraperitoneal injection) and twice daily with the protective compound (100 mg/kg/treatment; per os in tragacanth). On day 15 the extent of gastric damage was determined.

[8] = mice; Shibata 1981, p. 65; cited from earlier work
[9] = oral; British Pat. No. 1,251,976, Example 10; cited from earlier work
[10] = Effect on gastric damage caused by aspirin; type: in vivo, rats; details: aspirin approximately 550 mg/kg
Description: (§2) Gastric damage caused by irritant substances (e.g. aspirin, indomethacin or other acidic analgesic/anti-inflammatory drugs) is assessed by applying a suitable dose of the protective compound followed later by a relatively high dose of the irritant (in the case of aspirin, approximately 550 mg/kg). After a further 5 hours, the extent of gastric damage is determined.

[11] = Analgesic activity (acetic acid induced spasms); type: in vivo; details: rats; for Average No. of spasms (25 mins): untreated control 43.75
Description: as §1, with “compound: […]” for “compound:”

[12] = Activity against stress induced ulcers; type: in vivo; details: 100 mg/kg, rats, 24 h plaster bandage; drug 1 h before and 6 h after
Description: The effect of compounds on this formation of stress ulcers is assessed by applying the drugs 1 hour before encasing the animals in the bandage and again 6 hours after encasing the animals. After 24 hours, the bandage is removed and gastric damage is assessed compared to that of untreated animals.

[13] = Effect on gastric damage caused by indomethacin; type: in vivo, rats
Description: as §2

[14] = system: mice; assay: Acute toxicity of oleanolic acid; type: in vivo; details: oral route
[15] = Gastric damage caused by reserpine; type: in vivo, rats; details: 100 mg/kg per os; reserpine 6 mg/kg s.c.; after 16 hours; vs untreated control
Description: The animals were treated with oleanolic acid (per os; tragacanth vehicle) and directly thereafter with reserpine (6 mg/kg; subcutaneous injection). After 16 hours the extent of gastic damage was determined.

[16] = Healing effect on thermally induced ulceration; type: in vivo, rats; details: 100 mg/kg per os twice daily, days 1-13; day 14; vs untreated control
Description: Thermal stomach ulceration was induced on day zero by means of a heated (75° C.) stainless steel stamp (5 mm in diameter). From day one onwards to day 13 the animals were treated twice daily with oleanolic acid (100 mg/kg; per os in tragacanth). On day 14 the animals were examined for the extent of gastric damage.

CC(=O)Oc1ccccc1C(=O)O [Aspirin]
% inhibition of swelling ([1]; aspirin 25 mg/kg oral (combination: plus oleanolic acid 25 mg/kg), 1.5 hrs): 12% | % inhibition of swelling ([1]; aspirin 25 mg/kg oral (combination: plus oleanolic acid 25 mg/kg), 3 hrs): 17% | % inhibition of swelling ([1]; aspirin 25 mg/kg oral (combination: plus oleanolic acid 25 mg/kg), 4.5 hrs): 11% | % inhibition of swelling ([1]; aspirin 25 mg/kg oral (combination: plus oleanolic acid 25 mg/kg), 6 hrs): 18% | % inhibition of swelling ([1]; aspirin 50 mg/kg oral (combination: plus oleanolic acid 50 mg/kg), 1.5 hrs): 18% | % inhibition of swelling ([1]; aspirin 50 mg/kg oral (combination: plus oleanolic acid 50 mg/kg), 3 hrs): 32% | % inhibition of swelling ([1]; aspirin 50 mg/kg oral (combination: plus oleanolic acid 50 mg/kg), 4.5 hrs): 17% | % inhibition of swelling ([1]; aspirin 50 mg/kg oral (combination: plus oleanolic acid 50 mg/kg), 6 hrs): 16% | % inhibition of swelling ([1]; aspirin 100 mg/kg oral (combination: plus oleanolic acid 100 mg/kg), 1.5 hrs): 30% | % inhibition of swelling ([1]; aspirin 100 mg/kg oral (combination: plus oleanolic acid 100 mg/kg), 3 hrs): 42% | % inhibition of swelling ([1]; aspirin 100 mg/kg oral (combination: plus oleanolic acid 100 mg/kg), 4.5 hrs): 32% | % inhibition of swelling ([1]; aspirin 100 mg/kg oral (combination: plus oleanolic acid 100 mg/kg), 6 hrs): 23% | % inhibition of swelling ([1]; aspirin 200 mg/kg oral (combination: plus oleanolic acid 200 mg/kg), 1.5 hrs): 45% | % inhibition of swelling ([1]; aspirin 200 mg/kg oral (combination: plus oleanolic acid 200 mg/kg), 3 hrs): 52% | % inhibition of swelling ([1]; aspirin 200 mg/kg oral (combination: plus oleanolic acid 200 mg/kg), 4.5 hrs): 34% | % inhibition of swelling ([1]; aspirin 200 mg/kg oral (combination: plus oleanolic acid 200 mg/kg), 6 hrs): 30% | ED50 ([2]; po): 22.3 mg/kg | LD50 ([3]; combined): 1800 mg/kg | LD50 ([3]; females): 2100 mg/kg | LD50 [4]: 1110 mg/kg | effect on occurrence of pulmonary thrombo-embolism [5]: inhibits the occurrence | ED50 ([5]; read-out: ED50 (antithrombotic effect)): 41 mg/kg

CC1(C)[C@@H](OC(=O)CCC(=O)O)CC[C@]2(C)[C@H]3C(=O)C=C4[C@@H]5C[C@@](C)(C(=O)O)CC[C@]5(C)CC[C@@]4(C)[C@]3(C)CC[C@@H]12 [Carbenoxolone sodium, disodium salt of the hemisuccinate of glycyrrhetinic acid, reference compound]
reduction of gastric damage (acetic acid ulceration) [6]: 42%

CN/C(=N/CCSCc1nc[nH]c1C)NC#N [Cimetidine, reference compound]
inhibition of gastric damage (HCl - Gastrin ulcer) [7]: 41%

CC1(C)CC[C@]2(C(=O)O)CC[C@]3(C)C(=CC[C@@H]4[C@@]5(C)CC[C@H](O)C(C)(C)[C@@H]5CC[C@]43C)[C@@H]2C1 [Oleanolic acid, oleanolic acid]
inhibiting activity against stress-induced ulceration [8]: non-significant, if any, inhibiting activity | reduction in ulceration (glucose induced) [9]: 8% | ED50 ([2]; rats, oral, acetic acid spasms): 55.8 mg/kg | Percentage inhibition of Aspirin induced gastric damage ([10]; 30 mg/kg): 28% | Percentage inhibition of Aspirin induced gastric damage ([10]; 100 mg/kg): 49% | Percentage inhibition of Aspirin induced gastric damage ([10]; 300 mg/kg): 69% | % Inhibition of spasms ([11]; 10 mg/kg oral): 8.6% | Average No. of spasms (25 mins) ([11]; 10 mg/kg oral): 40.0 | % Inhibition of spasms ([11]; 31.6 mg/kg oral): 49.4% | Average No. of spasms (25 mins) ([11]; 31.6 mg/kg oral): 22.12 | % Inhibition of spasms ([11]; 100 mg/kg oral): 65.7% | Average No. of spasms (25 mins) ([11]; 100 mg/kg oral): 15.10 | inhibition of gastric damage (HCl - Gastrin ulcer) [7]: about 49% | inhibition of the mean total ulceration score [12]: 83.5% | Percentage inhibition of Indomethacin induced gastric damage ([13]; 10 mg/kg): 61% | Percentage inhibition of Indomethacin induced gastric damage ([13]; 30 mg/kg): 66% | Percentage inhibition of Indomethacin induced gastric damage ([13]; 100 mg/kg): 80% | Percentage inhibition of Indomethacin induced gastric damage ([13]; 300 mg/kg): 86% | doses that did not cause any deaths [14]: up to 4000 mg/kg | inhibition of reserpine induced gastric damage [15]: 25% | effect on occurrence of pulmonary thrombo-embolism [5]: no effect | reduction of gastric damage (thermal ulceration) [16]: 59% | reduction of gastric damage (acetic acid ulceration) [6]: 73%

CC1(C)CC[C@]2(C(=O)O)CC[C@]3(C)C(=CC[C@@H]4[C@@]5(C)CC[C@H](O)C(C)(C)[C@@H]5CC[C@]43C)[C@@H]2C1 [Sodium oleanolate]
Percentage inhibition of Aspirin induced gastric damage ([10]; 30 mg/kg): 1% | Percentage inhibition of Aspirin induced gastric damage ([10]; 100 mg/kg): 30% | Percentage inhibition of Aspirin induced gastric damage ([10]; 300 mg/kg): 47%

CC1(C)[C@@H](O)CC[C@]2(C)[C@H]3CC=C4[C@@H]5C[C@@](C)(CO)CC[C@]5(C)CC[C@@]4(C)[C@]3(C)CC[C@@H]12 [olean-12-en-3β, 30-diol, reference compound]
inhibiting activity against stress-induced ulceration [8]: promising inhibiting activity
